The source of these data is ChEMBL document CHEMBL2074216, “Novel camptothecin analogues that circumvent ABCG2-associated drug resistance in human tumor cells” (Int J Cancer, 2004).

Molecules are shown by their SMILES.

The series concerns the target T1, Broad substrate specificity ATP-binding cassette transporter ABCG2 (Homo sapiens, UniProt Q9UNQ0).
T1 sequence (Q9UNQ0 whole entry): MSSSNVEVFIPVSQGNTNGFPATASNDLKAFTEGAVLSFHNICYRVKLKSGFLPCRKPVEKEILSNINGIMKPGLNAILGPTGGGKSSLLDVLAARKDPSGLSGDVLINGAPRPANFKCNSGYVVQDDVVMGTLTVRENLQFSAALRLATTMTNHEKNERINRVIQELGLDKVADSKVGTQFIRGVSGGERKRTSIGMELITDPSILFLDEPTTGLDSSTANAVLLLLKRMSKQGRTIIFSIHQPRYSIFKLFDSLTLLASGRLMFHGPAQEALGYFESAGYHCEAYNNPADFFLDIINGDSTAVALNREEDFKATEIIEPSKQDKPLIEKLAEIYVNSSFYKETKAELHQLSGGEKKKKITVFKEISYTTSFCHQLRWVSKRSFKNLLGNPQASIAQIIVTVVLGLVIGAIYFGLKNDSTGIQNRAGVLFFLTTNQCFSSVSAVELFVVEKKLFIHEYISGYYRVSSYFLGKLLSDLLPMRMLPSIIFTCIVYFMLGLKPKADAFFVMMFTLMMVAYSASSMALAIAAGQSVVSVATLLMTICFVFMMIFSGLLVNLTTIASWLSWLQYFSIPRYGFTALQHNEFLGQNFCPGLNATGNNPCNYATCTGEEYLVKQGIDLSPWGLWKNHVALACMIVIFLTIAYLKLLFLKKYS
In words: TP_TRANSPORTER: uptake in BCRP-expressing PC-6 cells. The format is functional, cell-based.

With `CCc1c2c(nc3cc(F)c(O)cc13)-c1cc3c(c(=O)n1C2)COC(=O)[C@]3(O)CC`, the Activity entry is “substrate []”.

Consider `CCc1c2c(nc3cc(F)c(OC)cc13)-c1cc3c(c(=O)n1C2)COC(=O)[C@]3(O)CC`, for which the Activity entry is “substrate []”. For `CCc1c2c(nc3cc(O)ccc13)-c1cc3c(c(=O)n1C2)COC(=O)[C@]3(O)CC` the value was “substrate []”. For `CCc1c2c(nc3cc(Br)ccc13)-c1cc3c(c(=O)n1C2)COC(=O)[C@]3(O)CC` the value was “substrate []”; for `CCc1c2c(nc3ccc(Cl)cc13)-c1cc3c(c(=O)n1C2)COC(=O)[C@]3(O)CC`, “substrate []”; for `CCc1c2c(nc3ccc(N)cc13)-c1cc3c(c(=O)n1C2)COC(=O)[C@]3(O)CC`, “substrate []”. The entry for `CCc1c2c(nc3ccc(O)cc13)-c1cc3c(c(=O)n1C2)COC(=O)[C@]3(O)CC` [7-ETHYL-10-HYDROXYCAMPTOTHECIN] is “substrate []”.
